Experimental data taken from paper PMC9867380, “Ageing Curtails the Diversity and Functionality of Nascent CD8^+ T Cell Responses against SARS-CoV-2” (Vaccines, 2023).
Like-named read-outs stand apart in the source and are kept apart here.

What was measured:
[1] = tested on: primed CD8^+ T cells (PBMCs from HLA-A2 donors); assay type: cell-based, human
HLA-A2 = biological target: T1, HLA-A2 (Homo sapiens, UniProt P04439, D140Y/D185E/D98H/E176V/E277Q/G131W/G231S/I119V/I121R/I166T/I218V/L300P/L318F/N151K/N90K/P208A/P217A/Q86G/Q94H/R138H/R169H/T345S); assay: HLA–peptide binding assay (surface stabilization of HLA-A2 on T2 cells); details: differences especially at 10^−5 M and 10^−6 M
T1 construct: T2 cells, a lymphoma-derived line expressing low amounts of HLA-A2; endogenous in cells; host or cells: T2 cells

[2] = old donors (65–69 years, n = 8), peptide 1 μM, day 10 after priming, 24 h ELISpot, positive above 50 SFUs per 10^6 cells

Sequence | IFN-γ responses in old donors [1] | IFN-γ responses in old donors [1, 2] | Relative affinity for HLA-A2 (binding hierarchy among the peptides) (HLA-A2)
HLVDFQVTI [HLA-A2-restricted SARS-CoV-2 peptide from ORF6, residues 3–11] | limited to a single donor | – | –
KIADYNYKL [HLA-A2-restricted SARS-CoV-2 spike-derived peptide, residues 417–425] | – | no responses | –
LLYDANYFL [HLA-A2-restricted SARS-CoV-2 peptide from ORF3a, residues 139–147] | – | limited to a single donor | –
MLDMYSVML [HLA-A2-restricted SARS-CoV-2 peptide from RdRpol, residues 5291–5299] | – | limited to a single donor | –
SLVKPSFYV [HLA-A2-restricted SARS-CoV-2 peptide from protein E, residues 50–58] | – | limited to a single donor | –
TLDSKTQSL [HLA-A2-restricted SARS-CoV-2 spike-derived peptide, residues 109–117] | – | no responses | lowest relative affinities
YLQPRTFLL [HLA-A2-restricted SARS-CoV-2 spike-derived peptide, residues 269–277] | – | – | lowest relative affinities
